PubChem BioAssay (NCI)
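Test compounds were applied to cells in 96-well plates for 48 hours at 5 doses. At the GI50, growth is halved. TGI marks complete inhibition of growth.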

Experiments:
Assay in all cases: NCI-60 cell line screen, 48 h
HCT-15 colon = tested on: HCT-15 colon
UACC-62 melanoma = tested on: UACC-62 melanoma
RXF 393 renal = tested on: RXF 393 renal
SK-MEL-5 melanoma = tested on: SK-MEL-5 melanoma
SF-295 CNS = tested on: SF-295 CNS
T-47D breast = tested on: T-47D breast
MDA-MB-435 = tested on: MDA-MB-435
U251 CNS = tested on: U251 CNS
ACHN renal = tested on: ACHN renal
LOX IMVI melanoma = tested on: LOX IMVI melanoma
KM12 colon = tested on: KM12 colon
A498 renal = tested on: A498 renal
OVCAR-4 ovarian = tested on: OVCAR-4 ovarian
NCI-H226 lung = tested on: NCI-H226 lung
BT-549 breast = tested on: BT-549 breast
HT29 colon = tested on: HT29 colon
CAKI-1 renal = tested on: CAKI-1 renal
NCI/ADR-RES ovarian = tested on: NCI/ADR-RES ovarian
SF-268 CNS = tested on: SF-268 CNS
COLO 205 colon = tested on: COLO 205 colon
OVCAR-3 ovarian = tested on: OVCAR-3 ovarian
TK-10 renal = tested on: TK-10 renal
MCF7 breast = tested on: MCF7 breast
MDA-MB-231 breast = tested on: MDA-MB-231 breast
RPMI-8226 leukemia = tested on: RPMI-8226 leukemia
SW-620 colon = tested on: SW-620 colon
IGROV1 ovarian = tested on: IGROV1 ovarian
MALME-3M melanoma = tested on: MALME-3M melanoma
HCT-116 colon = tested on: HCT-116 colon

Structure (SMILES): COc1ccc(S(=O)(=O)NC2=NCCN2C(=S)SN2CCn3c2nsc3=S)cc1OC
- GI50 (HCT-15 colon): 26.2 µM
- TGI (HCT-15 colon): > 100 µM
- GI50 (UACC-62 melanoma): 16.3 µM
- TGI (UACC-62 melanoma): 38 µM
- GI50 (RXF 393 renal): 3.1 µM
- TGI (RXF 393 renal): 13 µM
- GI50 (SK-MEL-5 melanoma): 25.3 µM
- TGI (SK-MEL-5 melanoma): 74.1 µM
- GI50 (SF-295 CNS): 20.9 µM
- TGI (SF-295 CNS): 56.2 µM
- GI50 (T-47D breast): 15.3 µM
- TGI (T-47D breast): 35.3 µM
- GI50 (MDA-MB-435): 19.8 µM
- TGI (MDA-MB-435): 44.1 µM
- GI50 (U251 CNS): 22.3 µM
- TGI (U251 CNS): 53.4 µM
- GI50 (ACHN renal): 28.9 µM
- TGI (ACHN renal): > 100 µM
- GI50 (LOX IMVI melanoma): 16.8 µM
- TGI (LOX IMVI melanoma): 37.8 µM
- GI50 (KM12 colon): 21.2 µM
- TGI (KM12 colon): 52 µM
- GI50 (A498 renal): 37.3 µM
- TGI (A498 renal): > 100 µM
- GI50 (OVCAR-4 ovarian): 16 µM
- TGI (OVCAR-4 ovarian): 34.8 µM
- GI50 (NCI-H226 lung): 26.5 µM
- TGI (NCI-H226 lung): 81.5 µM
- GI50 (BT-549 breast): 30.9 µM
- TGI (BT-549 breast): > 100 µM
- GI50 (HT29 colon): 25.7 µM
- TGI (HT29 colon): 94.4 µM
- GI50 (CAKI-1 renal): 16.5 µM
- TGI (CAKI-1 renal): 61.8 µM
- GI50 (NCI/ADR-RES ovarian): 61.8 µM
- TGI (NCI/ADR-RES ovarian): > 100 µM
- GI50 (SF-268 CNS): 23.2 µM
- TGI (SF-268 CNS): 79.2 µM
- GI50 (COLO 205 colon): 12.5 µM
- TGI (COLO 205 colon): 29 µM
- GI50 (OVCAR-3 ovarian): 21 µM
- TGI (OVCAR-3 ovarian): 47 µM
- GI50 (TK-10 renal): 22.2 µM
- TGI (TK-10 renal): 73.8 µM
- GI50 (MCF7 breast): 15.7 µM
- TGI (MCF7 breast): 35.7 µM
- GI50 (MDA-MB-231 breast): 26.3 µM
- TGI (MDA-MB-231 breast): > 100 µM
- GI50 (RPMI-8226 leukemia): 7.93 µM
- TGI (RPMI-8226 leukemia): 27.5 µM
- GI50 (SW-620 colon): 18.9 µM
- TGI (SW-620 colon): > 100 µM
- GI50 (IGROV1 ovarian): 23.2 µM
- TGI (IGROV1 ovarian): > 100 µM
- GI50 (MALME-3M melanoma): 16.7 µM
- TGI (MALME-3M melanoma): 43.7 µM
- GI50 (HCT-116 colon): 19.2 µM
- TGI (HCT-116 colon): 40 µM
